Reference: publication PMC13388172 (Frontiers in Pharmacology, 2026)

Test: Therapeutic drug monitoring of serum ETI components and metabolites (UPLC-MS/MS), hourly for 9 hours after ingestion
Format: in vivo
Conditions: female, human, oral, full dose ETI, one pwCF, sampled hourly for 9 hours after ingestion, read-out: Area under the curve (AUC), serum
Description: The analytes of interest were assayed using an ultra-performance liquid chromatography tandem mass spectrometry method. In the concentration range from 0.01 to 20.0 mg/L, calibration curves were linear with a correlation coefficient >0.999 for all analytes.
Repeat TDM was conducted after a month on this reduced dosing strategy as this was felt likely to provide adequate time for steady-state concentrations to be achieved.

CC(C)(CO)c1cc2cc(NC(=O)C3(c4ccc5c(c4)OC(F)(F)O5)CC3)c(F)cc2n1C[C@@H](O)CO [tezacaftor]
AUC: 92600 ng·h/mL
